# Experimental data reported in US9643959B2, “Tubulin polymerization inhibitor and method for synthesizing same” (KOREA RESEARCH INSTITUTE OF BIOSCIENCE AND BIOTECHNOLOGY, priority 2013, dated 2017).
# Test system: cell proliferation
# Assay: screening of the small-molecule library for materials that can inhibit cell proliferation
# Assay type: cell-based
# Conditions: screen of small-molecule library; no data or method given
smiles,measurement,value
"CCOC(=O)Cn1c(C)c(/C=N/NC(=O)c2cc3c(ccc4ccccc43)o2)c2ccccc21 [Compound 7, (E)-ethyl 2-(2-methyl-3-((2-(naphtho[2,1-b]furan-2-carbonyl)hydrazono)methyl)-1H-indol-1-yl)acetate]",activity of inhibiting mitosis,has an activity of inhibiting mitosis
